According to patent publication US5256548A, “Antiviral antibiotic BU-4344V” (Bristol-Myers Squibb Company, priority 1992, dated 1993):
Converted amounts (≈) assume the structure as drawn.

What was measured:
[1] = system: herpes simplex virus type 1 (KOS strain); details: 72 h
Vero cells [2] = details: dye-uptake assay, Vero cells without viral infection, 72 hours
[3] = system: Herpes Simplex Virus Type I; test: Plaque reduction assay, herpes simplex virus (Vero cells); type: cell-based, herpes simplex virus type 1
Vero cells [4] = test: Plaque reduction assay, minimal toxic dose (Vero cells); type: cell-based
Experimental: In vitro antiviral activity of BU-4344V was assessed using the herpes simplex virus type 1 (KOS strain) - Vero cell and influenza virus type A (Victoria strain) - Madin Darby canine kidney (MDCK) cell systems by the dye-uptake assay method [Antiviral Research, 3, 223-234 (1986)]. The cell suspension (200 μl ), containing 2×10^4 cells, was inoculated to each well of 96-well microplates and cultured at 37° C. for 48-72 hours under humidified 5% CO2 -95% air environment. The growth medium in each well was replaced with 250 μl of fresh medium (Eagle MEM without serum) containing BU-4344V at various doses, and then 50 μl medium containing approximately 10×TCID50 of the viruses was added to each well. For cytotoxicity tests, the same set of wells, without the viruses, were prepared. After 72 hours of incubation, the degree of inhibition of the viral-induced cytopathic effect and the drug-induced cytotoxicity were determined. […] The antiviral activity of BU-4344V was also determined using a conventional plaque reduction assay method.

[5] = system: influenza virus type A (Victoria strain); test: Dye-uptake assay, inhibition of viral-induced cytopathic effect, influenza virus - MDCK cell system; type: cell-based; details: MDCK cells, 72 hours
Influenza Virus Type A = test: Plaque reduction assay, influenza virus (MDCK cells); type: cell-based

Nc1nc2c(ncn2COCCO)c(=O)[nH]1 [Acyclovir, reference compound]
ID50 (concentration showing 50% inhibition of the cytopathic effect) [1]: 0.2 µg/mL | TD50 (concentration exhibiting 50% cytotoxicity) (Vero cells [2]): > 100 µg/mL | ID50 [3]: 0.25 µg/mL (≈ 1.11 µM) | MTD (Minimal Toxic Dose) (Vero cells [4]): > 100 µg/mL

NC(=O)c1ncn([C@@H]2O[C@H](CO)[C@@H](O)[C@H]2O)n1 [Ribavirin, reference compound]
ID50 (concentration showing 50% inhibition of the cytopathic effect) [5]: 10 µg/mL | ID50 (Influenza Virus Type A): 3.8 µg/mL (≈ 15.6 µM)
